{
  "source": "patent US9549746B2",
  "about": "“Delivery device and method” (THE QUEEN'S UNIVERSITY OF BELFAST, priority 2007, dated 2017)",
  "assay": "Delivery across full thickness murine skin in a Franz diffusion cell from drug reservoir with integrated PMVMA microneedle array",
  "details": "reservoir 19.0 mg TMP cm^-2 attached to PMVMA microneedle array; receiver compartment followed over 25 hours; FIG. 11",
  "experimental": "In this study, a matrix-type drug reservoir containing 19.0 mg TMP cm^−2 was prepared and attached to a poly(methylvinylether/maleic acid-co-glyceride) (PMVMA) microneedle array. This system was pressed into full thickness murine skin, mounted as the barrier membrane in a Franz diffusion cell, with the aid of gentle pressure. TMP appearing in the receiver compartment was determined by fluorescence spectroscopy over a period of 25 hours.\nAn identical experiment to that described in Example 3 was performed again. The only difference was that the small very water soluble photosensitiser precursor 5-aminolevulinc acid (ALA, MW 167 Da) was used instead of TMP.",
  "data": [
    {"smiles": "C[n+]1ccc(-c2c3nc(c(-c4cc[n+](C)cc4)c4ccc([nH]4)c(-c4cc[n+](C)cc4)c4nc(c(-c5cc[n+](C)cc5)c5ccc2[nH]5)C=C4)C=C3)cc1.Cc1ccc(S(=O)(=O)[O-])cc1.Cc1ccc(S(=O)(=O)[O-])cc1.Cc1ccc(S(=O)(=O)[O-])cc1.Cc1ccc(S(=O)(=O)[O-])cc1", "note": "[TMP, meso-Tetra (N-methyl-4-pyridyl) porphine tetra tosylate]", "values": [
      {"measurement": "delivery of TMP across full thickness skin", "value": "sustained delivery of TMP across full thickness skin is possible"}
    ]}
  ]
}
